Source: patent US8088763B2 (priority 2004, dated 2012)

Assays:
5HT-uptake = molecular target: T1, 5HT-uptake (Rattus norvegicus, UniProt P31652); assay: biochemical; settings: for inhibition at 10 µM: read-out: 5HT-uptake [10 μM], % inhibition
T1 construct: synaptosomes were freshly isolated from areas of rats' brains

NA-uptake = NA-uptake (Rattus norvegicus, UniProt Q63380); assay: biochemical; settings: for inhibition at 10 µM: read-out: NA-uptake [10 μM], % inhibition
Sequence of NA-uptake (Q63380 1-617): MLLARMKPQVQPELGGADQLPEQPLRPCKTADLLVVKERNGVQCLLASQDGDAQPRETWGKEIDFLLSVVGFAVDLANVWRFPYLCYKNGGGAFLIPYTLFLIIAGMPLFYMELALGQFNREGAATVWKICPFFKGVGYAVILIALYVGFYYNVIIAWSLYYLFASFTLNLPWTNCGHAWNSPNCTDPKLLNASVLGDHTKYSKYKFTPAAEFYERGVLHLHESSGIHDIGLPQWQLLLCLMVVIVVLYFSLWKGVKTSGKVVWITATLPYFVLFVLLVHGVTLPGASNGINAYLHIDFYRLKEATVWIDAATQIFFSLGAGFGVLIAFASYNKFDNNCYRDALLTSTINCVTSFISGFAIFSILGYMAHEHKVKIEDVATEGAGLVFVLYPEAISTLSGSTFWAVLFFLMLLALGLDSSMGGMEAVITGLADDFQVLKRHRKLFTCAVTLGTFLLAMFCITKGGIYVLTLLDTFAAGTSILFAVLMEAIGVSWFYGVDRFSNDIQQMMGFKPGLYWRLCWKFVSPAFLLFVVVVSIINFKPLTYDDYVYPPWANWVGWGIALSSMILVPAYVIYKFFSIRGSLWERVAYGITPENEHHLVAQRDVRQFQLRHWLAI

T1 sequence (P31652 whole entry): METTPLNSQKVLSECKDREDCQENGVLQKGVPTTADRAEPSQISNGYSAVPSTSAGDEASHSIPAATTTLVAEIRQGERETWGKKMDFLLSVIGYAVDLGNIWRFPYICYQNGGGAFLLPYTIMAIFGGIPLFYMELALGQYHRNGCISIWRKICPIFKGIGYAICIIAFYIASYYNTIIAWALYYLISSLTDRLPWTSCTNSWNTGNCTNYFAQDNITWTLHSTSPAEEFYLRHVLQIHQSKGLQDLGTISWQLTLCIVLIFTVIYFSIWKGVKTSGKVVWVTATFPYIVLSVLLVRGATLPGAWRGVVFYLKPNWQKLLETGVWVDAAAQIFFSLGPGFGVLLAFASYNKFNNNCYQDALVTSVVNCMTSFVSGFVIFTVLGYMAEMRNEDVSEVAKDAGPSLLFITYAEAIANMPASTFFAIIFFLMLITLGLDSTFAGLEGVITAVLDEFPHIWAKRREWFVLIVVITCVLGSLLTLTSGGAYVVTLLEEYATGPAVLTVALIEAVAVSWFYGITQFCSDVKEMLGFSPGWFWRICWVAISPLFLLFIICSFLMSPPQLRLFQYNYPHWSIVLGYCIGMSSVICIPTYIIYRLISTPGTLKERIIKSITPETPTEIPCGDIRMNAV

Molecule | inhibition at 10 µM (5HT-uptake) | inhibition at 10 µM (NA-uptake) | 5HT-uptake [10 μM], % inhibition (5HT-uptake) | NA-uptake [10 μM], % inhibition (NA-uptake)
COc1ccc(CNC(=O)CCC(=O)NC2CCC(Cc3cccc(C)c3)(N(C)C)CC2)cc1 (stereo not shown) [Example 85, N-[4-dimethylamino-4-(3-methyl-benzyl)-cyclohexyl]-N′-(4-methoxy-benzyl)-succinamide] | 94% | 100% | – | –
CC1CN(C(=O)CCC(=O)NC2CCC(Cc3ccc(Cl)cc3)(N(C)C)CC2)CC(C)O1 (stereo not shown) [Example 86, N-[4-(4-chloro-benzyl)-4-dimethylamino-cyclohexyl]-4-(2,6-dimethyl-morpholin-4-yl)-4-oxo-butyramide] | 92% | 76% | – | –
COc1ccc(CN2CCN(C(=O)CCC(=O)NC3CCC(Cc4cccc(C)c4)(N(C)C)CC3)CC2)cc1F (stereo not shown) [Example 35, N-[4-dimethylamino-4-(3-methyl-benzyl)-cyclohexyl]-4-[4-(3-fluoro-4-methoxy-benzyl)-piperazin-1-yl]-4-oxo-butyramide] | 94% | 95% | – | –
Cc1ccc(CC2(N(C)C)CCC(NC(=O)CCC(=O)NC(C)C(C)C)CC2)cc1 (stereo not shown) [Example 105, N-[4-dimethylamino-4-(4-methyl-benzyl)-cyclohexyl]-N′-(1,2-dimethyl-propyl)-succinamide] | 92% | 90% | – | –
CCOC(=O)C(C)NC(=O)CCC(=O)NC1CCC(Cc2ccc(Cl)cc2)(N(C)C)CC1 (stereo not shown) [Example 7, 2-{3-[4-(4-chloro-benzyl)-4-dimethylamino-cyclohexylcarbamoyl]-propionylamino}-propanoic acid ethylester] | 93% | 91% | – | –
COc1ccccc1N1CCN(C(=O)CCC(=O)NC2CCC(Cc3ccc(Cl)cc3)(N(C)C)CC2)CC1 (stereo not shown) [Example 47, N-[4-(4-chloro-benzyl)-4-dimethylamino-cyclohexyl]-4-[4-(2-methoxy-phenyl)-piperazin-1-yl]-4-oxo-butyramide] | 93% | 73% | – | –
CN(C)C1(Cc2ccc(Cl)cc2)CCC(NC(=O)CCC(=O)N2CCN(C(=O)c3cccc(Cl)c3)CC2)CC1 (stereo not shown) [Example 134, 4-[4-(3-chloro-benzoyl)-piperazin-1-yl]-N-[4-(4-chloro-benzyl)-4-dimethylamino-cyclohexyl]-4-oxo-butyramide] | 92% | 101% | – | –
Cc1cccc(CC2(N(C)C)CCC(NC(=O)CCC(=O)N3CCc4[nH]c5ccc(F)cc5c4C3)CC2)c1 (stereo not shown) [Example 106, N-[4-dimethylamino-4-(3-methyl-benzyl)-cyclohexyl]-4-(8-fluoro-1,3,4,5-tetrahydro-pyrido[4,3-b]indol-2-yl)-4-oxo-butyramide] | 93% | 98% | – | –
CN(CCc1c[nH]c2ccccc12)C(=O)CCC(=O)NC1CCC(Cc2ccc(Cl)cc2)(N(C)C)CC1 (stereo not shown) [Example 57, N-[4-(4-chloro-benzyl)-4-dimethylamino-cyclohexyl]-N′-[2-(1H-indol-3-yl)-ethyl]-N′-methyl-succinamide] | 93% | 100% | – | –
Cc1cccc(N2CCN(C(=O)CCCC(=O)NC3CCC(Cc4ccccc4)(N(C)C)CC3)CC2)c1C (stereo not shown) [Example 56, 5-[4-(2,3-dimethyl-phenyl)-piperazin-1-yl]-5-oxo-valeric acid (4-benzyl-4-dimethylamino-cyclohexyl)-amide] | 95% | 96% | – | –
Cc1ccc(CC2(N(C)C)CCC(NC(=O)CCC(=O)NC3CCCc4ccccc43)CC2)cc1 (stereo not shown) [Example 126, N-[4-dimethylamino-4-(4-methyl-benzyl)-cyclohexyl]-N′-(1,2,3,4-tetrahydro-naphthalen-1-yl)-succinamide] | 93% | 84% | – | –
CN(C)C1(Cc2cccc(Cl)c2)CCC(NC(=O)CCC(=O)NCCc2ccccn2)CC1 (stereo not shown) [Example 12, N-[4-(3-chloro-benzyl)-4-dimethylamino-cyclohexyl]-N′-(2-pyridin-2-yl-ethyl)-succinamide] | 92% | 95% | – | –
COCCCNC(=O)CCC(=O)NC1CCC(Cc2ccc(Cl)cc2)(N(C)C)CC1 (stereo not shown) [Example 26, N-[4-(4-chloro-benzyl)-4-dimethylamino-cyclohexyl]-N′-(3-methoxy-propyl)-succinamide] | 93% | 79% | – | –
Cc1cccc(CC2(N(C)C)CCC(NC(=O)CCC(=O)N3CCN(c4ccc(Cl)cc4)CC3)CC2)c1 (stereo not shown) [Example 113, 4-[4-(4-chloro-phenyl)-piperazin-1-yl]-N-[4-dimethylamino-4-(3-methyl-benzyl)-cyclohexyl]-4-oxo-butyramide] | 97% | 94% | – | –
CN(C)C1(Cc2ccccc2)CCC(NC(=O)CCCC(=O)N2CCN(C3CCCCCC3)CC2)CC1 (stereo not shown) [Example 62, 5-(4-cycloheptyl-piperazin-1-yl)-5-oxo-valeric acid (4-benzyl-4-dimethylamino-cyclohexyl)-amide] | 100% | 86% | – | –
CCC(C)c1ccc(NC(=O)CCC(=O)NC2CCC(Cc3ccc(Cl)cc3)(N(C)C)CC2)cc1 (stereo not shown) [Example 140, N-(4-sec-butyl-phenyl)-N′-[4-(4-chloro-benzyl)-4-dimethylamino-cyclohexyl]-succinamide] | 93% | 77% | – | –

Molecule | inhibition at 10 µM (5HT-uptake) | inhibition at 10 µM (NA-uptake) | 5HT-uptake [10 μM], % inhibition (5HT-uptake) | NA-uptake [10 μM], % inhibition (NA-uptake)
Cc1cccc(CC2(N(C)C)CCC(NC(=O)CCC(=O)N3CCC(C)CC3)CC2)c1 (stereo not shown) [Example 20, N-[4-dimethylamino-4-(3-methyl-benzyl)-cyclohexyl]-4-(4-methyl-piperidin-1-yl)-4-oxo-butyramide] | 92% | 90% | – | –
COc1cc(CN2CCN(C(=O)CCCC(=O)NC3CCC(Cc4ccccc4)(N(C)C)CC3)CC2)cc2c1OCO2 (stereo not shown) [Example 54] | – | – | 95% | 90%
COc1ccc(CNC(=O)CCC(=O)NC2CCC(Cc3ccc(Cl)cc3)(N(C)C)CC2)c(OC)c1 (stereo not shown) [Example 68, N-[4-(4-chloro-benzyl)-4-dimethylamino-cyclohexyl]-N′-(2,4-dimethoxy-benzyl)-succinamide] | 98% | 85% | – | –
Cc1cccc(CC2(N(C)C)CCC(NC(=O)CCC(=O)NC(C)c3ccc(F)cc3)CC2)c1 (stereo not shown) [Example 112, N-[4-dimethylamino-4-(3-methyl-benzyl)-cyclohexyl]-N′-[1-(4-fluoro-phenyl)-ethyl]-succinamide] | 96% | 101% | – | –
COc1ccc(OC)c(CN2CCN(C(=O)CCCC(=O)NC3CCC(Cc4ccccc4)(N(C)C)CC3)CC2)c1 (stereo not shown) [Example 18, 5-[4-(2,5-dimethoxy-benzyl)-piperazin-1-yl]-5-oxo-valeric acid (4-benzyl-4-dimethylamino-cyclohexyl)-amide] | 94% | 84% | – | –
CCOP(=O)(Cc1ccc(NC(=O)CCC(=O)NC2CCC(Cc3cccc(C)c3)(N(C)C)CC2)cc1)OCC (stereo not shown) [Example 46, (4-{3-[4-dimethylamino-4-(3-methyl-benzyl)-cyclohexylcarbamoyl]-propionylamino}-benzyl)-phosphonic acid diethylester] | 92% | 89% | – | –
Cc1ccc(CC2(N(C)C)CCC(NC(=O)CCC(=O)N3CCN(c4ccccn4)CC3)CC2)cc1 (stereo not shown) [Example 21, N-[4-dimethylamino-4-(4-methyl-benzyl)-cyclohexyl]-4-oxo-4-(4-pyridin-2-yl-piperazin-1-yl)-butyramide] | 95% | 83% | – | –
CN(C)C1(Cc2ccc(Cl)cc2)CCC(NC(=O)CCC(=O)N2CC=CCC2)CC1 (stereo not shown) [Example 5, N-[4-(4-chloro-benzyl)-4-dimethylamino-cyclohexyl]-4-(3,6-dihydro-2H-pyridin-1-yl)-4-oxo-butyramide] | 93% | 80% | – | –
CN(C)C1(Cc2ccc(Cl)cc2)CCC(NC(=O)CCC(=O)NCc2cccc(Br)c2)CC1 (stereo not shown) [Example 165, N-(3-bromo-benzyl)-N′-[4-(4-chloro-benzyl)-4-dimethylamino-cyclohexyl]-succinamide] | 92% | 94% | – | –
Cc1cnc(C(=O)N2CCN(C(=O)CCC(=O)NC3CCC(Cc4ccc(Cl)cc4)(N(C)C)CC3)CC2)cn1 (stereo not shown) [Example 14, N-[4-(4-chloro-benzyl)-4-dimethylamino-cyclohexyl]-4-[4-(5-methyl-pyrazin-2-carbonyl)-piperazin-1-yl]-4-oxo-butyramide] | 95% | 78% | – | –
Glutaric acid-(4-benzyl-4-dimethylamino- cyclohexyl)-amide 4-dimethylamino- benzylamide [Example 81] | – | – | 92% | 91%
CC1CCN(C(=O)CCC(=O)NC2CCC(Cc3cccc(Cl)c3)(N(C)C)CC2)CC1 (stereo not shown) [Example 92, N-[4-(3-chloro-benzyl)-4-dimethylamino-cyclohexyl]-4-(4-methyl-piperidin-1-yl)-4-oxo-butyramide] | 92% | 89% | – | –
CN(C)C1(Cc2cccc(Cl)c2)CCC(NC(=O)CCC(=O)NCc2ccccn2)CC1 (stereo not shown) [Example 73, N-[4-(3-chloro-benzyl)-4-dimethylamino-cyclohexyl]-N′-pyridin-2-ylmethyl-succinamide] | 93% | 87% | – | –
Cc1cccc(CC2(N(C)C)CCC(NC(=O)CCC(=O)N(C)CCc3c[nH]c4ccccc34)CC2)c1 (stereo not shown) [Example 111, N-[4-dimethylamino-4-(3-methyl-benzyl)-cyclohexyl]-N′-[2-(1H-indol-3-yl)-ethyl]-N′-methyl-succinamide] | 96% | 97% | – | –
CN(C)C1(Cc2ccc(Cl)cc2)CCC(NC(=O)CCC(=O)NCCc2cccc(F)c2)CC1 (stereo not shown) [Example 88, N-[4-(4-chloro-benzyl)-4-dimethylamino-cyclohexyl]-N′-[2-(3-fluoro-phenyl)-ethyl]-succinamide] | 97% | 102% | – | –
Cc1ccc(CC2(N(C)C)CCC(NC(=O)CCC(=O)NCC3CCCO3)CC2)cc1 (stereo not shown) [Example 45, N-[4-dimethylamino-4-(4-methyl-benzyl)-cyclohexyl]-N′-(tetrahydro-furan-2-ylmethyl)-succinamide] | 92% | 77% | – | –
